Reference: ChEMBL document CHEMBL3745592, “Synthesis of novel coumarin appended bis(formylpyrazole) derivatives: Studies on their antimicrobial and antioxidant activities” (Bioorg Med Chem Lett, 2016)
Converted amounts (≈) assume the structure as drawn.

What was measured:
[1] = Antioxidant activity assessed as hydroxyl radical scavenging activity at 75 ug/ml after 60 mins; assay type: physicochemical; details: 1 h
Escherichia coli = assay: Antibacterial activity against Escherichia coli assessed as growth inhibition incubated for 24 hrs at 37 degC by broth dilution method; assay type: functional
[2] = Antioxidant activity assessed as DPPH free radical scavenging activity at 50 ug/ml after 20 mins by UV-vis spectrophotometry analysis; assay type: physicochemical
Candida albicans = assay: Antifungal activity against Candida albicans assessed as growth inhibition incubated for 72 hrs at 37 degC by broth dilution method; assay type: functional
[3] = Antioxidant activity assessed as hydroxyl radical scavenging activity at 100 ug/ml after 60 mins; assay type: physicochemical; details: 1 h
Staphylococcus aureus = assay: Antibacterial activity against Staphylococcus aureus assessed as growth inhibition incubated for 24 hrs at 37 degC by broth dilution method; assay type: functional
Pseudomonas aeruginosa = assay: Antibacterial activity against Pseudomonas aeruginosa assessed as growth inhibition incubated for 24 hrs at 37 degC by broth dilution method; assay type: functional
Aspergillus niger = assay: Antifungal activity against Aspergillus niger assessed as growth inhibition incubated for 72 hrs at 37 degC by broth dilution method; assay type: functional
[4] = Antioxidant activity assessed as DPPH free radical scavenging activity at 75 ug/ml after 20 mins by UV-vis spectrophotometry analysis; assay type: physicochemical
Aspergillus flavus = assay: Antifungal activity against Aspergillus flavus assessed as growth inhibition incubated for 72 hrs at 37 degC by broth dilution method; assay type: functional
[5] = Antioxidant activity assessed as DPPH free radical scavenging activity at 25 ug/ml after 20 mins by UV-vis spectrophotometry analysis; assay type: physicochemical
[6] = Antioxidant activity assessed as DPPH free radical scavenging activity at 100 ug/ml after 20 mins by UV-vis spectrophotometry analysis; assay type: physicochemical

Row | SMILES | inhibition (INH) [1] [%] | MIC90 (Escherichia coli) [µg/mL] | inhibition (INH) [2] [%] | MIC90 (Candida albicans) [µg/mL] | inhibition (INH) [3] [%] | MIC90 (Staphylococcus aureus) [µg/mL] | MIC90 (Pseudomonas aeruginosa) [µg/mL] | MIC90 (Aspergillus niger) [µg/mL] | inhibition (INH) [4] [%] | MIC90 (Aspergillus flavus) [µg/mL] | inhibition (INH) [5] [%] | inhibition (INH) [6] [%]
1 | COc1ccc(-n2cc(C=O)c(-c3cc4c(C)cc(=O)oc4c(-c4nn(-c5ccc(OC)cc5)cc4C=O)c3O)n2)cc1 | 29.4 | 50 (≈ 86.7 µM) | 17.87 | 50 (≈ 86.7 µM) | 35.13 | 50 (≈ 86.7 µM) | 12.5 (≈ 21.7 µM) | 25 (≈ 43.4 µM) | 21.14 | 50 (≈ 86.7 µM) | 14.2 | 24.59
2 | Cc1cccc(-n2cc(C=O)c(-c3cc4c(C)cc(=O)oc4c(-c4nn(-c5cccc(C)c5)cc4C=O)c3O)n2)c1 | 26.49 | 50 (≈ 91.8 µM) | 16.4 | 50 (≈ 91.8 µM) | 30.1 | 75 (≈ 138 µM) | 25 (≈ 45.9 µM) | 75 (≈ 138 µM) | 18.78 | 75 (≈ 138 µM) | 13.24 | 24.02
3 | Cc1cc(=O)oc2c(-c3nn(-c4ccccc4)cc3C=O)c(O)c(-c3nn(-c4ccccc4)cc3C=O)cc12 | 25.9 | 50 (≈ 96.8 µM) | 17.34 | 50 (≈ 96.8 µM) | 30.04 | 50 (≈ 96.8 µM) | 50 (≈ 96.8 µM) | 50 (≈ 96.8 µM) | 20.08 | 75 (≈ 145 µM) | 15.1 | 23.6
4 | COc1ccc(N/N=C(\C)c2cc3c(C)cc(=O)oc3c(/C(C)=N/Nc3ccc(OC)cc3)c2O)cc1 | 26.36 | 12.5 (≈ 25 µM) | 17.17 | 50 (≈ 99.9 µM) | 33.01 | 25 (≈ 49.9 µM) | 12.5 (≈ 25 µM) | 12.5 (≈ 25 µM) | 19.7 | 25 (≈ 49.9 µM) | 14.57 | 22.4
5 | C/C(=N\Nc1ccc(F)cc1)c1cc2c(C)cc(=O)oc2c(/C(C)=N/Nc2ccc(F)cc2)c1O | 17.33 | 50 (≈ 105 µM) | 11.69 | 75 (≈ 157 µM) | 26.6 | 75 (≈ 157 µM) | 50 (≈ 105 µM) | 50 (≈ 105 µM) | 14.01 | 75 (≈ 157 µM) | 8.49 | 17.45
6 | C/C(=N\Nc1cccc(C)c1)c1cc2c(C)cc(=O)oc2c(/C(C)=N/Nc2cccc(C)c2)c1O | 24.22 | 50 (≈ 107 µM) | 11.8 | 50 (≈ 107 µM) | 30.78 | 50 (≈ 107 µM) | 25 (≈ 53.4 µM) | 75 (≈ 160 µM) | 13.97 | 50 (≈ 107 µM) | 10.92 | 17.29
7 | C/C(=N\Nc1ccc(Cl)cc1)c1cc2c(C)cc(=O)oc2c(/C(C)=N/Nc2ccc(Cl)cc2)c1O | 23.49 | 50 (≈ 98.2 µM) | 14.75 | 50 (≈ 98.2 µM) | 30.75 | 50 (≈ 98.2 µM) | 25 (≈ 49.1 µM) | 25 (≈ 49.1 µM) | 17.41 | 50 (≈ 98.2 µM) | 10.73 | 20.62
8 | Cc1ccc(-n2cc(C=O)c(-c3cc4c(C)cc(=O)oc4c(-c4nn(-c5ccc(C)cc5)cc4C=O)c3O)n2)cc1 | 27.07 | 50 (≈ 91.8 µM) | 17.28 | 50 (≈ 91.8 µM) | 31.48 | 75 (≈ 138 µM) | 25 (≈ 45.9 µM) | 50 (≈ 91.8 µM) | 20.75 | 75 (≈ 138 µM) | 16 | 24.56
9 | Cc1cc(=O)oc2c(-c3nn(-c4ccc(Cl)cc4)cc3C=O)c(O)c(-c3nn(-c4ccc(Cl)cc4)cc3C=O)cc12 | 24.77 | 25 (≈ 42.7 µM) | 17.55 | 100 (≈ 171 µM) | 32.07 | 50 (≈ 85.4 µM) | 25 (≈ 42.7 µM) | 50 (≈ 85.4 µM) | 20.63 | 50 (≈ 85.4 µM) | 15.58 | 23.61
10 | C/C(=N\Nc1ccccc1)c1cc2c(C)cc(=O)oc2c(/C(C)=N/Nc2ccccc2)c1O | 24.36 | 25 (≈ 56.8 µM) | 16.96 | 50 (≈ 114 µM) | 29.65 | 50 (≈ 114 µM) | 25 (≈ 56.8 µM) | 50 (≈ 114 µM) | 19.35 | 50 (≈ 114 µM) | 15.03 | 22.22
11 | Cc1cc(=O)oc2c(-c3nn(-c4ccc(F)cc4)cc3C=O)c(O)c(-c3nn(-c4ccc(F)cc4)cc3C=O)cc12 | 21.27 | 75 (≈ 136 µM) | 14.93 | 100 (≈ 181 µM) | 29.47 | 75 (≈ 136 µM) | 50 (≈ 90.5 µM) | 75 (≈ 136 µM) | 17.69 | 75 (≈ 136 µM) | 11.62 | 19.44
12 | C/C(=N\Nc1ccc(C)cc1)c1cc2c(C)cc(=O)oc2c(/C(C)=N/Nc2ccc(C)cc2)c1O | 25.54 | 25 (≈ 53.4 µM) | 16.65 | 50 (≈ 107 µM) | 30.52 | 25 (≈ 53.4 µM) | 25 (≈ 53.4 µM) | 50 (≈ 107 µM) | 19.43 | 25 (≈ 53.4 µM) | 14.29 | 22.45
13 | O=C1O[C@H]([C@@H](O)CO)C(O)=C1O [ASCORBIC ACID] |  |  | 16.87 |  |  |  |  |  | 21.98 |  | 15.08 | 24.25
14 | COc1ccc(O)c(C(C)(C)C)c1.COc1ccc(O)cc1C(C)(C)C [BUTYLATED HYDROXYANISOLE] | 25.58 |  |  |  | 32.03 |  |  |  |  |  |  | 
15 | O=C(O)c1cn(C2CC2)c2cc(N3CCNCC3)c(F)cc2c1=O [CIPROFLOXACIN] |  | 25 (≈ 75.4 µM) |  |  |  | 25 (≈ 75.4 µM) | 12.5 (≈ 37.7 µM) |  |  |  |  | 
16 | OC(Cn1cncn1)(Cn1cncn1)c1ccc(F)cc1F [FLUCONAZOLE] |  |  |  | 50 (≈ 163 µM) |  |  |  | 25 (≈ 81.6 µM) |  | 25 (≈ 81.6 µM) |  | 
